Assay [1] concerns the target N-terminal catalytic site of the Angiotensin I converting enzyme (recombinant ACE) (Homo sapiens, UniProt P12821). Description: Inhibition of the N-terminal catalytic site of recombinant ACE (fluorogenic substrate). The format is biochemical. As to the method:
(§1) The fractions from purification were submitted to mass spectrometry analysis to conforming the Evasins molar mass after purification. • The enzyme assays for the recombinant ACE inhibition were conducted using the substrate Mca-Ala-Ser-Asp-Lys-DpaOH, at 25° C., in a 50 mM Hepes buffer (pH 6.8), 200 mM NaCl and […] ZnCl2.

The target in assay [2] is neutral endopeptidase (recombinant NEP) (Homo sapiens, UniProt P08473). As to the kind of experiment: Fluorometric assay of recombinant NEP inhibition. The format is biochemical. The procedure:
The fluorometric assays for the recombinant NEP inhibition were conducted using the substrate Abz-RL-EDDnp in a 50 mM Tris-HCl buffer, pH 7.5, at 37° C. […] The Evasins were pre-incubated with the enzyme before the substrate addition.
The inhibition constants (Ki) values were determined by means of the ratio of the apparent inhibition constant (Ki(app)) and the substrate Km (Salvesen and Nagase, 1990). In: Proteolytic enzymes a practical aproach, Beynon and Bond Eds Oxford University Press, England, 87-88).

Assay [3] has as its target C-terminal catalytic site of the Angiotensin I converting enzyme (recombinant ACE) (Homo sapiens, UniProt P12821). As to the kind of experiment: Inhibition of the C-terminal catalytic site of recombinant ACE (fluorogenic substrate). Format: biochemical. As to the method: as §1
Assay [4] deals with anesthetized normotensive rats (WKY) blood pressure. As to the kind of experiment: Potentiation of the bradykinin hypotensive effect on anesthetized rat blood pressure. The format is in vivo. To be noted: for Bk potentiation(%): hypotension increase of a single bradykinin dose after 200 nmol of potentiator i.v., anesthetized rats; for Duration time: time to reduce the potentiating effect by 50%, 200 nmol/rat i.v., unit not given, minutes. As to the method:
The potentiating activity of the bradykinin hypotensive effect was tested in anesthetized rats. Normotensive male rats (WKY) were anesthetized using pentobarbital sodium (Hypnol® Cristália, 50 mg/kg, intraperitoneal) and placed on a controlled-temperature board for maintaining the body temperature between 36.5° C. and 37° C. A polygraph coupled to a physiological transducer was used. The blood pressure ranging values were obtained by integrating the areas limited by the baseline pressure and comparing them to the values obtained from control assays. In in vivo assays, the potentiating activity of Evasins on the hypotensive effect of bradykinin on anesthetized rat blood pressure was observed. Two parameters were determined for comparison of the potentiating effects of bradykinin on the anesthetized rat blood pressure (n=5):
1) Intensity of the potentiating effect of the hypotensive activity of bradykinin on the anesthetized rats blood pressure: This value was defined as the hypotension percentage (%) increase caused by a single dose of bradykinin obtained after the infusion of 200 nmol of potentiator. 2) Potentiating effect length: Time required to reduce the potentiating effect on a single dose of bradykinin by 50%.

For assay [5], the target named is recombinant neutral endopeptidase. As to the kind of experiment: fluorogenic substrate (Abz-RL-EDDnp) inhibition assay, recombinant NEP.
Assay [6] deals with T1, recombinant Angiotensin I converting enzyme, C-terminal catalytic site.
T1 chain: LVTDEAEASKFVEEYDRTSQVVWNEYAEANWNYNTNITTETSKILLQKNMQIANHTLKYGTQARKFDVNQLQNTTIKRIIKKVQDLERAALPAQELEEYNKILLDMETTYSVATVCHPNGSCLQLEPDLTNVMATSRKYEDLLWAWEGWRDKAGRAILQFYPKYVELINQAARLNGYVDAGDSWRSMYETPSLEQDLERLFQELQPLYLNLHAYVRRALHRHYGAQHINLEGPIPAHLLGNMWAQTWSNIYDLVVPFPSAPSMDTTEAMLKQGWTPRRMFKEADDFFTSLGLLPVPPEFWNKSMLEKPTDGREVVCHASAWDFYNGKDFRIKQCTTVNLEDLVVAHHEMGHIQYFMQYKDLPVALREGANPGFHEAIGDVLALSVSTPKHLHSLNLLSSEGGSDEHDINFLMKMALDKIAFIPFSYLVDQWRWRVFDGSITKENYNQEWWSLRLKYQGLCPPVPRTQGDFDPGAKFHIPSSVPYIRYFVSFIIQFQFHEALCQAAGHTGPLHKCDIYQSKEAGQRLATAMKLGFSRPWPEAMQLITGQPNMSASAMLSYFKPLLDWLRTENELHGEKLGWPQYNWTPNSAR

Assay [7] has as its target T2, recombinant Angiotensin I converting enzyme, N-terminal catalytic site.
T2 chain: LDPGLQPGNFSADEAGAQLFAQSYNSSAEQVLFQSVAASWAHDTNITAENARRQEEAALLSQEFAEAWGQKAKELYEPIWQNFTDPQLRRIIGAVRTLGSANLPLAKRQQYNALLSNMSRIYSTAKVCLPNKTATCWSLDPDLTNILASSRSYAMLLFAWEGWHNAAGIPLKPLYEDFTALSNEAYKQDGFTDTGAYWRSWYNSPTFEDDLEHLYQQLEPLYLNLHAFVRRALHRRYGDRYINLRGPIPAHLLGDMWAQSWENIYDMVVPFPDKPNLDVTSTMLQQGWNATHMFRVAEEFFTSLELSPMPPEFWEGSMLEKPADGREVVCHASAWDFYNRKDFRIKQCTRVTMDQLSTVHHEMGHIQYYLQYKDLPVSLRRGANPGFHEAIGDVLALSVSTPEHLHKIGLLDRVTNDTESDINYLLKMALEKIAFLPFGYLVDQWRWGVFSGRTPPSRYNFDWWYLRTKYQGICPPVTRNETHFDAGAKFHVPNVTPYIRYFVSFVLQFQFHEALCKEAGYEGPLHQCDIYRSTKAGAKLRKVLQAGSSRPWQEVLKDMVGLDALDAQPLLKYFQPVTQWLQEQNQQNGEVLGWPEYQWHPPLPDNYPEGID

Square brackets hold non-standard residues; d marks the D form. Ends that are not written are not given here. Peptide text beside a SMILES is read from it. pGlu = O=C1CC[C@@H](C(=O)O)N1

neutral endopeptidase (recombinant NEP), sequence (P08473 whole entry, species assumed): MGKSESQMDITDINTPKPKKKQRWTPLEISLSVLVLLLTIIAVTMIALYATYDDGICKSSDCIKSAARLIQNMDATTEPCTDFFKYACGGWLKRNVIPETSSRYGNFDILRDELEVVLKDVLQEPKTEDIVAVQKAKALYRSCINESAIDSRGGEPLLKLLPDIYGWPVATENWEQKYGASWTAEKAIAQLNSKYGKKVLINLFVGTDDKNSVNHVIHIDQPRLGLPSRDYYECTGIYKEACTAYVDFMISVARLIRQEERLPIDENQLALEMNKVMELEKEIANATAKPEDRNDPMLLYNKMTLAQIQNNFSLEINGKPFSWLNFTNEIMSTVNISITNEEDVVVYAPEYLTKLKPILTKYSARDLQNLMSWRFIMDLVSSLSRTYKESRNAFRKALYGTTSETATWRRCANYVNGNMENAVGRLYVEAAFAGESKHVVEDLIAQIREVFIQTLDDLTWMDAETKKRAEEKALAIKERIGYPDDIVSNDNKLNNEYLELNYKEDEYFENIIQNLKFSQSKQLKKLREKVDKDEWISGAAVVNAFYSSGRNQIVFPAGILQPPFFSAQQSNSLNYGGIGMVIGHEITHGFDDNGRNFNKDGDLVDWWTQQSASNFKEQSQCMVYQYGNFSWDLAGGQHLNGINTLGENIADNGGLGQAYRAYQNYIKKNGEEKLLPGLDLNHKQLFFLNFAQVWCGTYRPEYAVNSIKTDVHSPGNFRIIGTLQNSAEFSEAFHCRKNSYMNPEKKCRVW

Broadly, the Ki is a dissociation constant, usually derived from enzyme kinetics or from competition with a known ligand. Regarding `CC[C@H](C)[C@H](NC(=O)[C@@H]1CCCN1C(=O)[C@@H]1CCCN1C(=O)CNC(=O)[C@@H]1CCCN1C(=O)[C@@H]1CCCN1C(=O)[C@H](CCCNC(=N)N)NC(=O)CNC(=O)[C@H](Cc1c[nH]c2ccccc12)NC(=O)[C@@H]1CCC(=O)N1)C(=O)N1CCC[C@H]1C(=O)N1CCC[C@H]1C(=O)O` [EVASIN-12b, <EWGRPPGPPIPP] ([pGlu]WGRPPGPPIPP-OH; C-terminus assumed), the Ki in assay [1] stood at 5 nM; in assay [2], 150000 nM; in assay [3], 150 nM. For the same molecule, the “Bk potentiation(%)” value in assay [4] turned out to be 340%. Also, the Duration time in assay [4] came to 40.
For `CC[C@H](C)[C@H](NC(=O)[C@H](CCC(=O)O)NC(=O)[C@@H]1CCCN1C(=O)CNC(=O)[C@@H]1CCCN1C(=O)[C@H](CCCNC(=N)N)NC(=O)[C@@H]1CCCN1C(=O)[C@H](Cc1c[nH]c2ccccc12)NC(=O)CNC(=O)CNC(=O)[C@@H]1CCC(=O)N1)C(=O)N1CCC[C@H]1C(=O)N1CCC[C@H]1C(=O)O` [EVASIN-13a, <EGGWPRPGPEIPP] ([pGlu]GGWPRPGPEIPP-OH; C-terminus assumed), the values for the Ki in assay [1], in assay [2] and in assay [3] were 50 nM, 473000 nM and 50 nM, respectively. The “Bk potentiation(%)” value in assay [4] was determined as 45%. In assay [4], the Duration time amounted to 30.
Consider `CC[C@H](C)[C@H](NC(=O)[C@@H]1CCCN1C(=O)[C@@H]1CCCN1C(=O)[C@H](Cc1c[nH]cn1)NC(=O)[C@@H]1CCCN1C(=O)[C@H](C)NC(=O)[C@H](CCCNC(=N)N)NC(=O)CNC(=O)[C@@H]1CCC(=O)N1)C(=O)N1CCC[C@H]1C(=O)N1CCC[C@H]1C(=O)O` [EVASIN-11c, <EGRAPHPPIPP] ([pGlu]GRAPHPPIPP-OH; C-terminus assumed), for which the Ki was 2000 nM in assay [1], 589000 nM in assay [2] and 40 nM in assay [3]. The “Bk potentiation(%)” value in assay [4] is recorded as 67%. Also, the Duration time in assay [4] amounted to 28.
As for EVASIN-10c (peptide), the inhibition constant Ki in assay [5] amounted to 253000 nM.
In the case of `CC[C@H](C)[C@H](NC(=O)[C@H](CCC(N)=O)NC(=O)[C@@H]1CCCN1C(=O)[C@H](CCCNC(=N)N)NC(=O)[C@@H]1CCCN1C(=O)[C@H](Cc1c[nH]c2ccccc12)NC(=O)[C@H](C)NC(=O)[C@H](Cc1c[nH]c2ccccc12)NC(=O)CNC(=O)[C@@H]1CCC(=O)N1)C(=O)N1CCC[C@H]1C(=O)N1CCC[C@H]1C(=O)O` [EVASIN-12a, <EGWAWPRPQIPP] ([pGlu]GWAWPRPQIPP-OH; C-terminus assumed), the Ki in assay [1] came to 25 nM; in assay [2] it was 106000 nM; in assay [3], 25 nM.
With `CC[C@H](C)[C@H](NC(=O)[C@H](CC(N)=O)NC(=O)[C@@H]1CCCN1C(=O)CNC(=O)[C@@H]1CCCN1C(=O)[C@H](Cc1c[nH]c2ccccc12)NC(=O)[C@H](CO)NC(=O)[C@@H]1CCC(=O)N1)C(=O)N1CCC[C@H]1C(=O)N1CCC[C@H]1C(=O)O` [EVASIN-10a, <ESWPGPNIPP] ([pGlu]SWPGPNIPP-OH; C-terminus assumed), the inhibition constant Ki stood at 130 nM in assay [1] and 33 nM in assay [3].
As for `CC[C@H](C)[C@H](NC(=O)[C@@H]1CCCN1C(=O)[C@@H]1CCCN1C(=O)[C@H](Cc1c[nH]cn1)NC(=O)[C@@H]1CCCN1C(=O)[C@@H]1CCCN1C(=O)[C@H](CCCNC(=N)N)NC(=O)[C@H](C)NC(=O)[C@@H]1CCC(=O)N1)C(=O)N1CCC[C@H]1C(=O)N1CCC[C@H]1C(=O)O` [EVASIN-11e, EARPPHPPIPP] ([pGlu]ARPPHPPIPP-OH; C-terminus assumed), in assay [4], the “Bk potentiation(%)” value was 41% and the Duration time is 35.
In the case of `CC[C@H](C)[C@H](NC(=O)[C@@H]1CCCN1C(=O)[C@@H]1CCCN1C(=O)CNC(=O)[C@@H]1CCCN1C(=O)[C@H](C)NC(=O)[C@H](CCCNC(=N)N)NC(=O)CNC(=O)[C@@H]1CCC(=O)N1)C(=O)N1CCC[C@H]1C(=O)N1CCC[C@H]1C(=O)O` [EVASIN-11b, <EGRAPGPPIPP] ([pGlu]GRAPGPPIPP-OH; C-terminus assumed), the inhibitory constant (Ki) in assay [1] was 3000 nM; in assay [2] it was 476000 nM; in assay [3] it was 57 nM. Moreover, the “Bk potentiation(%)” value in assay [4] is reported as 164.3%. Also, the Duration time in assay [4] was determined as 90.

B1: EVASIN-11c (peptide)
peptide: [pGlu]GRAPHPPIPP
For the molecule B1, the Ki in assay [6] came to 40 nM; in assay [7], 2000 nM; in assay [5] it was 589000 nM.

B2: EVASIN-7a (peptide)
peptide: [pGlu]DGPIPP
Consider B2, for which the figures for the Ki in assay [6], in assay [7] and in assay [5] were 40000 nM, 70000 nM and 492000 nM, respectively.

B3: EVASIN-12b (peptide)
peptide: [pGlu]WGRPPGPPIPP
With B3, the inhibition constant (Ki) was found to be 150 nM in assay [6], 5 nM in assay [7] and 150000 nM in assay [5].

B4: EVASIN-11b (peptide)
peptide: [pGlu]GRAPGPPIPP
Turning to B4, the Ki in assay [6] came to 57 nM; in assay [7], 3000 nM; in assay [5], 476000 nM.

B5: EVASIN-12a (peptide)
peptide: [pGlu]GWAWPRPQIPP
As for B5, the values for the inhibitory constant (Ki) in assay [6], in assay [7] and in assay [5] were 25 nM, 25 nM and 106000 nM, respectively.

B6: EVASIN-9a (peptide)
peptide: EWPRPQIPP
modifications: pyroglutamic acid (<E) at position 1 (N-terminus)
As for B6, the Ki in assay [6] was found to be 1 nM; in assay [7], 100 nM; in assay [5] it was 86000 nM.

B7: EVASIN-5a (peptide)
peptide: [pGlu]KWAP
For the molecule B7, the inhibitory constant (Ki) in assay [6] was determined as 1280 nM; in assay [7], 399 nM; in assay [5], 550000 nM.

B8: EVASIN-13a (peptide)
peptide: [pGlu]GGWPRPGPEIPP
Consider B8, for which the results for the inhibition constant Ki in assay [6], in assay [7] and in assay [5] were 50 nM, 50 nM and 473000 nM, respectively.

B9: EVASIN-10a (peptide)
peptide: [pGlu]SWPGPNIPP
With B9, the inhibition constant (Ki) in assay [6] was 33 nM; in assay [7] it was 130 nM.

The record behind these values is patent US20080199503A1, “Pharmaceutical Compositions Preparation of Peptides, Secreted by the Snake Venom Glands, Particularly of Bothrops Jararaca, Vasopeptidases Inhibitors, Evasins, Their Analogues, Derivatives and Products Associated, Thereof, for Development of Applications and Use in Chronic-Degenerative Diseases” (priority 2002, published 2008).
